Experiments:
Type in all cases: cell-based
[1] = target: T1, ETV6-TRKC-G623R (Homo sapiens, UniProt Q16288, G623R); assay: Engineered Ba/F3 cell proliferation inhibition (MTS), ETV6-TRKC-G623R; details: 72 h
T1 construct: fused on or other part: P41212 (Transcription factor ETV6)
Source text: (§1) MTS testing kit was purchased from Promega (Madison, Wis., USA). The RPMI-1640, Fetal bovine serum and Penicillin-Streptomycin were purchased from Gibco (San Francisco, Calif., USA). Dimethyl sulfoxide (DMSO) and Puromycin were purchased from Sigma (St. Louis., Mo., USA). Mouse interleukin-3 (IL-3) was purchased from Cell signaling Technology (Boston, Mass., USA).
(§2) To investigate whether a compound is able to inhibit the activity of TRK fusion mutation in cells, a mechanism-based assay using engineered Ba/F3 cell lines stably overexpressing oncogenic rearrangement or gene mutation of TRK (TPM3-TRKA, TPM3-TRKA-G595R, AFAP1-TRKB, ETV6-TRKC and ETV6-TRKC-G623R) were developed. In this assay, inhibition of TRK fusion mutation was detected by the cell proliferation inhibition of engineered Ba/F3 cells. Engineered Ba/F3 cells were cultured in culture flasks to 40-80% confluence in RPMI-1640 supplemented with 10% fetal bovine serum, 2 ug/mL puromycin. Cells were collected and plated onto 96-well plates at desired cell density (Ba/F3-TPM3-TRKA: 3×10^4/mL, Ba/F3-TPM3-TRKA-G595R: 1×10^5/mL, Ba/F3-AFAP1-TRKB: 1×10^5/mL, Ba/F3-ETV6-TRKC: 3×10^4/mL, Ba/F3-ETV6-TRKC-G623R: 3×10^4/mL). Plates were incubated at 37° C., with 5% CO2 for 4 h. Compounds were then added to the plates with the final compound concentrations of 10000, 3333, 1111, […], 123, 41.2, 13.7, 4.6 and 1.5 nM. Plates were incubated at 37° C., with 5% CO2 for 72 h. A mixture of 20 μl MTS/100 μl medium were added to each well and the plates were incubated at 37° C., with 5% CO2 for exactly 2 h. The reaction was stopped by adding 25 μl of 10% SDS per well. The absorbance was measured at 490 nm and 650 nm (reference wavelength). IC50 was calculated using GraphPad Prism 5.0 software.

[2] = test system: KM12 cells; assay: KM12 cells proliferation inhibition (MTS), mechanism-based assay for TRK; details: Homo sapiens, KM12, 72 h
Source text: as §1
To investigate whether a compound is able to inhibit the activity of TRK in cells, a mechanism-based assay using KM12 cells was developed. In this assay, inhibition of TRK was detected by the inhibition of KM12 cells proliferation. KM12 cells were cultured in culture flasks to 40-80% confluence in RPMI-1640 plus 10% fetal bovine serum. Cells were collected and plated onto 96-well plates at 1000 cells/well. Plates were incubated at 37° C., with 5% CO2 for 4 h. Compounds were added to the plates, the final compound concentrations were […], 123.5, 41.2, 13.7, 4.6 and 1.5 nM. Place plates at 37° C., with 5% CO2 for KM12 cells 72 h. 20 μl MTS/100 μl medium mixture solution were added to each well and incubate the plates for exactly 2 h. Stop the reaction by adding 25 μl 10% SDS per well. Measure absorbance at 490 nm and 650 nm (reference wavelength). IC50 was calculated using GraphPad Prism 5.0.

[3] = target: T2, TPM3-TRKA-G595R (Homo sapiens, UniProt P04629, G595R); assay: Engineered Ba/F3 cell proliferation inhibition (MTS), TPM3-TRKA-G595R; details: 72 h
T2 construct: TPM3 (tropomyosin alpha-3, P06753) fusion partner; expressed in transfected cells; host or cells: Ba/F3; the other entry of the earlier key: TPM3 (P06753, Tropomyosin alpha-3 chain)
T2 sequence (P04629 510-796 G595R limits assumed): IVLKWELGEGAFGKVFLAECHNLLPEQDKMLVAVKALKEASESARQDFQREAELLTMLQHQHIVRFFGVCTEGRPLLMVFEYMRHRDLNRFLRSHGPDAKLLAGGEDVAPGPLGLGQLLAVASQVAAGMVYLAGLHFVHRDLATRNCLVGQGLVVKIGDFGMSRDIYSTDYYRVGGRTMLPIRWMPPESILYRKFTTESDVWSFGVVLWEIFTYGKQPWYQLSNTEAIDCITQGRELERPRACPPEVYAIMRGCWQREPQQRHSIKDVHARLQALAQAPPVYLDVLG
Source text: as §1, §2

T1 sequence (Q16288 whole entry G623R, the tested form may be a part): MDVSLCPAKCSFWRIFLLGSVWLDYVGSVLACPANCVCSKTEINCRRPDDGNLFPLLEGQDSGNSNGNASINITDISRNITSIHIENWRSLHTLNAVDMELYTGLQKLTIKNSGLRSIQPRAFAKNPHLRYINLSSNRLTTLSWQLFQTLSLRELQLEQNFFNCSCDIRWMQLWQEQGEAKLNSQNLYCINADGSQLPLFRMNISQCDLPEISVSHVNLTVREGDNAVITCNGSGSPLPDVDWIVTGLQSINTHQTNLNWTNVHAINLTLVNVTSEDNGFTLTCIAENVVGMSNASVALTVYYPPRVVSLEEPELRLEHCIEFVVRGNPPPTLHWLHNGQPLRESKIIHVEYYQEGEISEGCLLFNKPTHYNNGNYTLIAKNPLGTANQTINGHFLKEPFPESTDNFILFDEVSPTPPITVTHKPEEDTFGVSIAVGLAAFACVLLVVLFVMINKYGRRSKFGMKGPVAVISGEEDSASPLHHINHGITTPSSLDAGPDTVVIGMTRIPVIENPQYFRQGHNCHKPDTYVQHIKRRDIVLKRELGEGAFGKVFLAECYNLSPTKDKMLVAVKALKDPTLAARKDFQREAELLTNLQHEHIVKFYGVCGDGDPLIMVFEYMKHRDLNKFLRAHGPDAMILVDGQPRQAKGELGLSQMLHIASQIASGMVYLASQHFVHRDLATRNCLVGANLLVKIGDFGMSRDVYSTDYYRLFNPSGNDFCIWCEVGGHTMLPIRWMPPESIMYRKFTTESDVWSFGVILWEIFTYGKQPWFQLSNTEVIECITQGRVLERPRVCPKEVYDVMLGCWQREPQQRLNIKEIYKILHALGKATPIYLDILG

IC50 [1]	IC50 [3]	Compound	IC50 [2]
87 nM		C[C@@H]1CCc2ccc(F)cc2C2(CC2)N(C)c2ccn3ncc(c3n2)C(=O)N1 [Example 55, (R,3′E,4′E)-5′-fluoro-2′,7′-dimethylspiro [cyclopropane-1,3′-2,8-diaza-1(5,3)-pyrazolo[1,5-a]pyrimidina-4(1,2)-benzenecyclononaphan]-9′-one]	5 nM
1 nM		[2H]C([2H])([2H])N1c2ccn3ncc(c3n2)C(=O)NC2(CC2)COc2ccc(F)cc2C12CC2 [Example 89, (3′E,4′E)-5′-fluoro-2′-(methyl-d3)dispiro [cyclopropane-1,3′-5-oxa-2,8-diaza-1(5,3)-pyrazolo[1,5-a]pyrimidina-4(1,2)-benzena-cyclononaphan-7′,1″-cyclopropan]-9′-one]	
2 nM		[2H]C([2H])([2H])N1c2ccn3ncc(c3n2)C(=O)NC2(CC2)COc2ncc(F)cc2C12CC2 [Example 91, (3′E,4′E)-5′-fluoro-2′-(methyl-d3)dispiro-[cyclopropane-1,3′-5-oxa-2,8-diaza-1(5,3)-pyrazolo[1,5-a]pyrimidina-4(3,2)-pyridina-cyclononaphane-7′,1″-cyclopropan]-9′-one]	
5 nM		CN1c2ccn3ncc(c3n2)C(=O)NCC2(CC2)COc2ncc(F)cc2C12CC2 [Example 92, (3′E,4′E)-5′-fluoro-2′-methyldispiro-[cyclopropane-1,3′-5-oxa-2,9-diaza-1(5,3)-pyrazolo[1,5-a]pyrimidina-4(3,2)-pyridina-cyclodecaphane-7′,1″-cyclopropan]-10′-one]	
32 nM		CN1c2ccn3ncc(c3n2)C(=O)NCC(C)(C)COc2ncc(F)cc2C12CC2 [Example 93, (3′E,4′E)-5′-fluoro-2′,7′,7′-trimethylspiro-[cyclopropane-1,3′-5-oxa-2,9-diaza-1(5,3)-pyrazolo[1,5-a]pyrimidina-4(3,2)-pyridina-cyclodecaphan]-10′-one]	
25 nM		CN1c2ccn3ncc(c3n2)C(=O)NCC(F)(F)COc2ncc(F)cc2C12CC2 [Example 94, (3′E,4′E)-5′,7′,7′-trifluoro-2′-methylspiro-[cyclopropane-1,3′-5-oxa-2,9-diaza-1(5,3)-pyrazolo[1,5-a]pyrimidina-4(4,3)-pyridina-cyclodecaphan]-10′-one]	
4 nM		CN1c2ccn3ncc(c3n2)C(=O)NCC(O)COc2ncc(F)cc2C12CC2 (centres unmarked) [Example 96, (3′E,4′E)-5′-fluoro-7′-hydroxy-2′-methyl-spiro[cyclopropane-1,3′-5-oxa-2,9-diaza-1(5,3)-pyrazolo[1,5-a]pyrimidina-4(3,2)-pyridinacyclodecaphan]-10′-one]	
25 nM		[2H]C([2H])([2H])N1c2ccn3ncc(c3n2)C(=O)NC2(CCc3ncc(F)cc3C13CC3)CC2 [Example 97, (3′E,4′E)-5′-fluoro-2′-(methyl-d3)-dispiro [cyclopropane-1,3′-2,8-diaza-1(5,3)-pyrazolo[1,5-a]pyrimidina-4(3,2)-pyridinacyclononaphane-7′,1″- cyclopropan]-9′-one]	

Continued, molecule first:

Compound	IC50 [1]	IC50 [3]	IC50 [2]
C[C@@H]1CNC(=O)c2cnn3ccc(nc23)N2CC[C@H]3C[C@]32c2cc(F)cnc2O1 [Example 25, (1^3E,1^4E,2^1R,2^5S,5R)-3^5-fluoro-5-methyl-4-oxa-2^2,7-diaza-1(5,3)-pyrazolo[1,5-a]pyrimidina-(3,2)-pyridina-2(2,1)-bicyclo[3.1.0]hexanacyclooctaphan-8-one]	7 nM		2 nM
C[C@H]1CNC(=O)c2cnn3ccc(nc23)N2CC[C@H]3C[C@]32c2cc(F)cnc2O1 [Example 26, (1^3E,1^4E,2^1R,2^5S,5S)-3^5-fluoro-5-methyl-4-oxa-2^2,7-diaza-1(5,3)-pyrazolo[1,5-a]pyrimidina-3(3,2)-pyridina-2(2,1)-bicyclo[3.1.0]hexanacyclooctaphan-8-one]	1 nM		1 nM
C[C@H]1CNC(=O)c2cnc3ccc(nn23)N2CC[C@H]3C[C@]32c2cc(F)cnc2O1 [Example 72, (2^1R,2^5S,5S,E)-3^5-fluoro-5-methyl-4-oxa-2^2,7-diaza-1(6,3)-imidazo[1,2-b]pyridazina-3(3,2)-pyridina-2(2,1)-bicyclo[3.1.0] hexanacyclooctaphan-8-one]	5 nM	3 nM	
O=C1NCCCOc2ncc(F)cc2[C@@]23C[C@@H]2CCN3c2ccn3ncc1c3n2 [Example 76, (1^3E,1^4E,2^1E,2^1R,2^5S)-3^5-fluoro-4-oxa-2^2,8-diaza-1(5,3)-pyrazolo[1,5-a]pyrimidina-3(3,2)-pyridina-2(2,1)-bicyclo[3.1.0]hexana-cyclononaphan-9-one]	1 nM		
O=C1NCC2(CC2)COc2ncc(F)cc2[C@@]23C[C@@H]2CCN3c2ccn3ncc1c3n2 [Example 79, (1′R,3′E,4′E,5′S)-5′-fluorospiro-[cyclopropane-1,6′-4-oxa-2^2,8-diaza-1(5,3)-pyrazolo[1,5-a]pyrimidina-3(3,2)-pyridina-2(2,1)-bicyclo[3.1.0]hexana-cyclononaphan]-9′-one]	1 nM		
CC1(C)CNC(=O)c2cnn3ccc(nc23)N2CC[C@H]3C[C@]32c2cc(F)cnc2OC1 [Example 80, (1^3E,1^4E,2^1R,2^5S)-3^5-fluoro-6,6-dimethyl-4-oxa-2^2,8-diaza-1(5,3)-pyrazolo[1,5-a] pyrimidina-3(3,2)-pyridina-2(2,1)-bicyclo [3.1.0]hexanacyclononaphan-9-one]	4 nM		
O=C1NCC(F)(F)COc2ncc(F)cc2[C@@]23C[C@@H]2CCN3c2ccn3ncc1c3n2 [Example 81, (1^3E,1^4E,2^1R,2^5S)-3^5,6,6-trifluoro-4-oxa-2^2,8-diaza-1(5,3)-pyrazolo[1,5-a]pyrimidina-3(3,2)-pyridina-2(2,1)-bicyclo[3.1.0] hexanacyclononaphan-9-one]	1 nM		
O=C1NCC(F)COc2ncc(F)cc2[C@@]23C[C@@H]2CCN3c2ccn3ncc1c3n2 (some centres unmarked) [Example 82, (1^3E,1^4E,2^1R,2^5S)-3^5,6-difluoro-4-oxa-2^2,8-diaza-1(5,3)-pyrazolo[1,5-a]pyrimidina-3(3,2)-pyridina-2(2,1)-bicyclo[3.1.0] hexanacyclononaphan-9-one]	1 nM		
O=C1NCC(O)COc2ncc(F)cc2[C@@]23C[C@@H]2CCN3c2ccn3ncc1c3n2 (some centres unmarked) [Example 83, (1^3E,1^4E,2^1R,2^5S)-3^5-fluoro-6-hydroxy-4-oxa-2^2,8-diaza-1(5,3)-pyrazolo[1,5-a] pyrimidina-3(3,2)-pyridina-2(2,1)-bicyclo [3.1.0]hexanacyclononaphan-9-one]	1 nM		
CN1c2ccn3ncc(c3n2)C(=O)NCC(F)COc2ncc(F)cc2C12CC2 (centres unmarked) [Example 95, (3′E,4′E)-5′,7′-difluoro-2′-methylspiro-[cyclopropane-1,3′-5-oxa-2,9-diaza-1(5,3)-pyrazolo[1,5-a]pyrimidina-4(3,2)-pyridina-cyclodecaphan]-10′-one]	1 nM		
Nc1nn2ccc3nc2c1C(=O)NC1(CC1)COc1ncc(F)cc1[C@@]12C[C@@H]1CCN32 [Example 98, (1′R,3′E,4′E,5′S)-2′-amino-5′-fluorospiro-[cyclopropane-1,6′-4-oxa-2^2,7-diaza-1(5,3)-pyrazolo[1,5-a]pyrimidina-3(3,2)-pyridina-2(2,1)-bicyclo[3.1.0]-hexanacyclooctaphan]-8′-one]	1 nM		

Source: patent publication US11555042B2, “Macrocyclic compounds as TRK kinases inhibitors” (FOCHON BIOSCIENCES, LTD., priority 2018, dated 2023)
